In patent publication US20230011869A1 (Hoffmann-La Roche Inc., priority 2018, published 2023) one finds IC90 data, which are given here for 25 compounds.

In the experiment the test system is Acinetobacter baumannii ATCC17978. Briefly: Antimicrobial susceptibility testing: 90% growth inhibitory concentration (IC90) determination, Iso-Sensitest broth. The class given is cell-based. The procedure, abridged:
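A. baumannii ATCC17978 grown in Iso-Sensitest broth across 10 compound concentrations at 35±2 °C.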

Where [1] appears, read: 90% growth inhibitory concentration, Acinetobacter baumannii ATCC17978, Iso-Sensitest broth, OD 600 nm over 16 h, read-out: ATCC17978 IC90.
Setting [2] is: Acinetobacter baumannii, ATCC17978, 16 h, read-out: ATCC17978 IC90, 90% growth inhibitory concentration, Acinetobacter baumannii ATCC17978, Iso-Sensitest broth, OD 600 nm over 16 h.

Each structure is given as a SMILES string. Counter-ions that a name gives are not always drawn. Like-named read-outs stand apart in the source and are kept apart here.

Regarding `Cc1cc(Nc2nccn3c(-c4ccc(OC(F)F)cc4)cnc23)ccc1C(=O)N1CCN(C(=O)CC[C@@H](N)C(=O)O)CC1` [Example 271, (2R)-2-amino-5-[4-[4-[[3-[4-(difluoromethoxy)phenyl]imi-dazo[1,2-a]pyrazin-8-yl]amino]-2-methylbenzoyl]piperazin-1-yl]-5-oxopentanoic acid; formic acid], the IC90 under setting [1] was 2100 nM.

For the compound `Cc1cc(Nc2nccn3c(-c4ccc(OC(F)F)cc4)cnc23)ccc1C(=O)N1CCN(C(=O)NC2CNC2)CC1` [Example 169, N-(azetidin-3-yl)-4-[4-[[3-[4-(difluoromethoxy)phenyl]imidazo[1,2-a]pyrazin-8-yl]amino]-2-methyl-benzoyl]piperazine-1-carboxamide trifluoroacetate], the IC90 under setting [1] is 470 nM.

With `Cc1cc(Nc2nccn3c(-c4ccc(OC(F)F)cc4)cnc23)ccc1C(=O)N1CCN(C(=O)NCC2CNC2)CC1` [Example 144, N-(azetidin-3-ylmethyl)-4-[4-[[3-[4-(difluoromethoxy)phenyl]imidazo[1,2-a]pyrazin-8-yl]amino]-2-methyl-benzoyl]piperazine-1-carboxamide formate], the IC90 under setting [1] worked out at 130 nM.

On to `Cc1cc(Nc2nccn3c(-c4ccc(OC(F)F)cc4)cnc23)ccc1C(=O)N1CCC2(CCOCC2)C1` [Example 370, [4-[[3-[4-(difluoromethoxy)phenyl]imi-dazo[1,2-a]pyrazin-8-yl]amino]-2-methylphenyl]-(8-oxa-2-azaspiro[4.5]decan-2-yl)methanone], for which the IC90 under setting [2] worked out at 1100 nM.

With `Cc1cc(Nc2nccn3c(-c4ccc(O[C@H](C)C#N)c(F)c4F)cnc23)ccc1C(=O)N1CCN(C(=O)[C@@H]2C[C@](C)(O)CN2)CC1` [Example 567, (2R)-2-[2,3-difluoro-4-[8-[4-[4-[(2S,4S)-4-hydroxy-4-methyl-pyrrolidine-2-carbonyl]piperazine-1-carbonyl]-3-methyl-anilino]imidazo[1,2-a]pyrazin-3-yl]phenoxy]propanenitrile formate], the IC90 under setting [2] stood at 386 nM.

For the compound `COc1ccc(-c2cnc3c(Nc4ccc(C(=O)N5CCOCC5)c(C)c4)nccn23)cc1Cl` [Example 21, (4-((3-(3-chloro-4-methoxyphenyl)imidazo[1,2-a]pyrazin-8-yl)amino)-2-methylphenyl)(morpholino)methanone], under setting [1], the IC90 is 240 nM.

In the case of `COc1cc(F)c(-c2cnc3c(Nc4ccc(C(=O)N5CCC(CN)CC5)c(C)c4)nccn23)cc1Cl` [Example 107, (4-(aminomethyl)piperidin-1-yl)(4-((3-(5-chloro-2-fluoro-4-methoxyphenyl)imidazo[1,2-a]pyrazin-8-yl)amino)-2-methylphenyl)methanone], the IC90 under setting [1] was found to be 290 nM.

As to `Cc1cc(Nc2nccn3c(-c4ccc(OCC#CCO)c(F)c4)cnc23)ccc1C(=O)N1CCC(CN)CC1` [Example 387, [4-(aminomethyl)piperidin-1-yl]-[4-[[3-[3-fluoro-4-(4-hydroxybut-2-ynoxy)phenyl]imidazo[1,2-a]pyrazin-8-yl]amino]-2-methylphenyl]methanone; for-mic acid], the IC90 under setting [1] was found to be 240 nM.

Turning to `Cc1cc(Nc2nccn3c(-c4ccc(OC(F)F)cc4)cnc23)ccc1C(=O)N1CCN(CCN2CCCCC2)CC1` [Example 355, [4-[[3-[4-(difluoromethoxy)phenyl]imi-dazo[1,2-a]pyrazin-8-yl]amino]-2-methylphenyl]-[4-(2-piperidin-1-ylethyl)piperazin-1-yl]methanone], the IC90 under setting [2] is 260 nM.

`CCc1cc(Nc2nccn3c(-c4ccc(OS(C)(=O)=O)c(F)c4F)cnc23)ccc1C(=O)N1CCN(C(=O)[C@@H]2C[C@@H](O)CN2)CC1` [Example 454, [4-[8-[3-ethyl-4-[4-[(2S,4R)-4-hydroxypyrrolidine-2-carbonyl]piperazine-1-carbonyl]anilino]imidazo[1,2-a]pyrazin-3-yl]-2,3-difluorophenyl] methanesulfonate; formic acid]: under setting [2], the IC90 stood at 4700 nM.

Turning to `CC[C@@]1(O)CN[C@H](C(=O)N2CCN(C(=O)c3ccc(Nc4nccn5c(-c6ccc(OC)c(F)c6F)cnc45)cc3C)CC2)C1` [Example 456, [4-[[3-(2,3-difluoro-4-methoxyphenyl)imidazo[1,2-a]pyrazin-8-yl]amino]-2-methylphenyl]-[4-[(2S,4S)-4-ethyl-4-hydroxypyrrolidine-2-carbonyl]piperazin-1-yl]methanone; formic acid], under setting [2], the IC90 was found to be 68 nM.

With `COc1ccc(-c2cnc3c(Nc4ccc(C(=O)N5CCC(C(=O)NCCN(C)C)CC5)c(C)c4)nccn23)cc1F` [Example 47, N-[2-(dimethylamino)ethyl]-1-[4-[[3-(3-fluoro-4-methoxyphenyl)imidazo[1,2-a]pyrazin-8-yl]amino]-2-methylbenzoyl]piperidine-4-carboxamide], the IC90 under setting [1] was 140 nM.

In the case of `Cc1cc(Nc2nccn3c(-c4ccc(O[C@@H](C)C#N)c(F)c4F)cnc23)ccc1C(=O)N1CCN(C(=O)[C@@H]2C[C@@H](O)CN2)CC1` [Example 468, (2S)-2-[2,3-difluoro-4-[8-[4-[4-[(2S,4R)-4-hydroxypyrrolidine-2-carbonyl]piperazine-1-carbonyl]-3-methylanilino]imidazo[1,2-a]pyrazin-3-yl]phenoxy]propanenitrile; for-mic acid], the IC90 under setting [1] amounted to 200 nM.

`COc1ccc(-c2cnc3c(Nc4ccc(C(=O)N5CCC(C(=O)NC6(C(N)=O)CNC6)CC5)c(C)c4)nccn23)cc1F` [Example 407, N-(3-carbamoylazetidin-3-yl)-1-[4-[[3-(3-fluoro-4-methoxyphenyl)imidazo[1,2-a]pyrazin-8-yl]amino]-2-methylbenzoyl]piperidine-4-carboxamide; 2,2,2-trifluoroacetic acid]: the IC90 under setting [2] was 540 nM.

Take `COc1ccc(-c2cnc3c(Nc4ccc(C(=O)N5CCN(C(=O)[C@@H]6C[C@@H](O)CN6)CC5)c(C)c4)nccn23)c(Cl)c1F` [Example 476, [4-[[3-(2-chloro-3-fluoro-4-methoxyphenyl)imidazo[1,2-a]pyrazin-8-yl]amino]-2-methylphenyl]-[4-[(2S,4R)-4-hydroxypyrrolidine-2-carbonyl]piperazin-1-yl]methanone; formic acid]: the IC90 under setting [2] worked out at 100 nM.

As for `CCc1cc(Nc2nccn3c(-c4ccc(OCC#N)c(F)c4F)cnc23)ccc1C(=O)N1CCN(C(=O)C2CCNCC2)CC1` [Example 194, 2-[4-[8-[3-ethyl-4-[4-(piperidine-4-carbonyl)piperazine-1-carbonyl]anilino]imidazo [1,2-a]pyrazin-3-yl]-2,3-difluoro-phenoxy]acetonitrile formate], under setting [1], the IC90 stood at 290 nM.

On to `COc1ccc(-c2cnc3c(Nc4ccc(C(=O)N5CCN(C(=O)N[C@@H](C)CN)CC5)c(C)c4)nccn23)c(Cl)c1F` [Example 478, formic acid], for which, under setting [2], the IC90 was determined as 130 nM.

Turning to `CNC(=O)C1CCN(C(=O)c2ccc(Nc3nccn4c(-c5ccc(OC(F)F)cc5)cnc34)cc2C)CC1` [Example 15, 1-(4-((3-(4-(difluoromethoxy)phenyl)imidazo[1,2-a]pyrazin-8-yl)amino)-2-methylbenzoyl)-N-methylpiperidine-4-carboxamide], the IC90 under setting [1] is 150 nM.

As for `COc1ccc(-c2cnc3c(Nc4ccc(C(=O)N5CCN(C(=O)[C@H](CCCCN)NC(=O)[C@@H](N)CCC(=O)O)CC5)c(C)c4)nccn23)c(F)c1F` [Example 537, (4S)-4-amino-5-[[(2S)-6-amino-1-[4-[4-[[3-(2,3-difluoro-4-methoxyphenyl)imidazo[1,2-a]pyrazin-8-yl]amino]-2-methylbenzoyl]piperazin-1-yl]-1-oxohexan-2-yl]amino]-5-oxopentanoic acid; hydrochloride], under setting [2], the IC90 was 4400 nM.

For `Cc1cc(Nc2nccn3c(-c4ccc(OC(F)F)cc4)cnc23)ccc1C(=O)N1CCC(c2nncn2C)CC1` [Example 13, (4-((3-(4-(difluoromethoxy)phenyl)imidazo[1,2-a]pyrazin-8-yl)amino)-2-methylphenyl)(4-(4-methyl-4H-1,2,4-triazol-3-yl)piperidin-1-yl)methanone], the IC90 under setting [1] turned out to be 130 nM.

With `COc1ccc(-c2cnc3c(Nc4ccc(C(=O)N5CCC(C(=O)NC(CO)(CO)CO)CC5)c(C)c4)nccn23)cc1F` [Example 388, N-[1,3-dihydroxy-2-(hydroxymethyl)propan-2-yl]-1-[4-[[3-(3-fluoro-4-methoxyphenyl)imidazo[1,2-a]pyrazin-8-yl]amino]-2-methylbenzoyl]piperidine-4-carboxamide], the IC90 under setting [1] was found to be 260 nM.

Take `Cc1cc(Nc2nccn3c(-c4ccc(OC(F)F)cc4)cnc23)ccc1C(=O)N1CCC(C2CNC2)CC1` [Example 20, (4-(azetidin-3-yl)piperidin-1-yl)(4-((3-(4-(difluoromethoxy)phenyl)imidazo[1,2-a]pyrazin-8-yl)amino)-2-methylphenyl)methanone hydrochloride]: the IC90 under setting [1] was 160 nM.

As to `COc1ccc(-c2cnc3c(Nc4ccc(C(=O)N5CCN(C(=O)[C@H]6CCCN6)CC5)c(C)c4)nccn23)cc1F` [Example 179, [4-[[3-(3-fluoro-4-methoxy-phenyl)imidazo[1,2-a]pyrazin-8-yl]amino]-2-methyl-phenyl]-[4-[(2R)-pyrrolidine-2-carbonyl]piperazin-1-yl]methanone hydrochloride], the IC90 under setting [1] was found to be 190 nM.

Turning to `COC(=O)C[C@H](N)C(=O)N1CCN(C(=O)c2ccc(Nc3nccn4c(-c5ccc(OC(F)F)cc5)cnc34)cc2C)CC1` [Example 514, methyl (3S)-3-amino-4-[4-[4-[[3-[4-(difluoromethoxy)phenyl]imi-dazo[1,2-a]pyrazin-8-yl]amino]-2-methylbenzoyl]piperazin-1-yl]-4-oxobutanoate; hydrochloride], under setting [2], the IC90 stood at 630 nM.

Consider `COc1ccc(-c2cnc3c(Nc4ccc(C(=O)N5CCNCC5)c(C)c4)nccn23)cc1F` [Example 130, [4-[[3-(3-fluoro-4-methoxy-phenyl)imidazo[1,2-a]pyrazin-8-yl]amino]-2-methyl-phenyl]-piperazin-1-yl-methanone hydrochloride], for which the IC90 under setting [1] was found to be 430 nM.
